# In a melting point compilation (Tetko et al.; mined from patent text by program, amines drawn as free bases though some values may be those of a salt):
row,Compound,melting point [°C]
1,CC(C)(C)Cc1c(CC(C)(C)C(=O)O)n(Cc2ccc(Cl)cc2)c2ccc(OCc3ccc4sccc4n3)cc12,187 to 188
2,CCOC(=O)c1nc2ccc(OC)cc2[nH]c1=O,229
3,O=c1[nH]c2ccccc2n1CCN1CCCCC1,123 to 125
4,COC(=O)Nc1nc(C)c(C(=O)c2sc(NC(=O)OC)nc2C)s1,188 to 189
5,CCOc1nc2c(cnn2CC)nc1C(=O)Cl,86 to 87
6,CCOc1nc(O)c(C#N)s1,132
7,CCOC(=O)Cn1c(=O)sc2cc(N)c(Cl)cc21,154 to 160
8,COC(=O)CCn1c(=O)[nH][nH]c1=O,150 to 153
9,O=C([C@@H]1CCCN1S(=O)(=O)c1ccc2ccccc2c1)N1C[C@H](c2ccc(Cl)cc2)Sc2ccc3ccccc3c21,204 to 205
10,CCC#CCOc1cc(C=O)ccc1OC,38 to 39
11,COC(C)CC(=O)NC1CCC(CCN2CCN(c3nccc4c3OCC4)CC2)CC1 (racemic),168
12,Cc1ccc2oc(CC(=O)O)c(C)c2c1,116 to 117
13,CCOC(=O)C1=C(C)NC(C=O)=C(C(=O)OCC)C1c1cccc(O)c1 (stereo not given),142
14,Nc1sc2c(c1C(=O)c1cccs1)CCCC2,115 to 118
15,CCCCOc1c(CNC(=O)OC(C)(C)C)n(CC(C)(C)C)c(=O)c2ccc(/C=C/C(=O)O)cc12,138 to 139
16,O=C(NCc1ccn(-c2cc3nc(C(=O)O)c(=O)[nH]c3cc2C(F)(F)F)c1)Nc1ccc(F)cc1,168 to 170
17,CC(C)Oc1ccc(/C=C(\NC(=O)c2ccc(OCCc3ccc4ccccc4c3)cc2)C(=O)NCCO)cc1,78 to 79
18,N#Cc1cc2c(-c3ccncc3)nccc2[nH]c1=O,> 300
19,O=C1c2ccccc2C(=O)N1CC(=O)N1c2ccccc2N(Cc2ccc([N+](=O)[O-])cc2)C(=O)[C@H]2CCC[C@H]21 (relative stereo),224 to 225
20,CCOc1cc2ncc(C#N)c(Nc3cccc(Br)c3)c2cc1OCC,173 to 175
21,CCOC(=O)CNC(=O)NCc1cccc2c1C(=O)N(C1CCC(=O)NC1=O)C2=O (stereo not given),187 to 189
22,CCCc1c(OCCCOc2ccc3c(c2CCC)OC(C)(CCC(=O)N(C)CC(=O)OCC)CC3=O)ccc(C(C)=O)c1O (stereo not given),101 to 102
23,CC(C)(C)OC(=O)N[C@@H](Cc1ccc(Cc2ccccc2)cc1)C(=O)O,103 to 107
24,CN(C)Cc1cc(C(=O)C2CCCCC2)cc(C(C)(C)C)c1O,149 to 150
25,c1ccc2c(c1)CCc1c(CN3CCN(c4ccc5ccccc5n4)CC3)n[nH]c1-2,154 to 155

row,Compound,melting point [°C]
1,COc1cc2c(cc1F)CCC2=O,152 to 154
2,COc1ccc(C#Cc2ccc(C=O)cc2)cc1,106
3,Cc1nc(C(F)(F)F)ccc1C(=O)C1=C(Sc2ccc(Cl)cc2)C2CCC(C2)C1=O (stereo not given),130 to 131
4,FC(F)(F)Oc1cccc(-c2ccc3nnn(Cc4ccc5ncccc5c4)c3n2)c1,140 to 142
5,Cc1ccc(-c2nc(N3CCOCC3)c3c(C)c(C#N)sc3n2)cc1,206 to 207
6,O=C(CCCCCNC(=O)Nc1cn2c3c(cccc13)CCC2)NO,161 to 163
7,CC(=O)N1N=C(c2ccc([N+](=O)[O-])c(C)c2)c2cc3c(cc2CC1(C)C#N)OCO3 (stereo not given),253 to 255
8,CCOCc1nc2c(N)nc3ccccc3c2n1NC(CC)CC,125 to 128
9,Cc1cncc(CC(=O)c2ccccc2)c1,53 to 54
10,COc1ccc(-n2nc(C(F)F)cc2-c2ccc(S(C)(=O)=O)cc2)cc1F,185 to 186
11,CCCCCCCCCCCCCCCC(=O)N[C@@H](CSC(=O)CCCCCCCCCCCCCCC)C(=O)O,82 to 84
12,N#CC(c1ccccc1)c1nc(-c2ccncc2)cs1 (stereo not given),110 to 111
13,COC(=O)c1cc(N=NN(C)C)cs1,90 to 92
14,CC1(C(=O)Cc2ccc(Cl)cc2[N+](=O)[O-])CC=CS1 (stereo not given),142 to 143
15,O=C1CC(Cl)C(=O)N1c1ccccc1 (stereo not given),117 to 118
16,COC(CN/C=C\C(=C(C#N)C#N)c1ccc2cc(N(C)C)ccc2c1)OC,158 to 159
17,COC(=O)NCc1c[nH]c(=S)n1[C@H]1CCc2c(F)cc(F)cc2C1,220 to 222
18,CN(C)C(=O)c1ccc(C(=O)O)c(S(=O)(=O)NC(C)(C)C)c1,> 260
19,O=c1nc(-c2ccccn2)sc2cc(C(F)(F)F)ccc12,176 to 177
20,CCc1cccc(C(C#N)c2nc(OC)cc(OC)n2)c1[N+](=O)[O-] (stereo not given),113 to 114
21,Cc1c(CC(=O)O)c2ccccc2n1-c1ncnc2ccccc12,234 to 236
22,CC(C)(C(=O)c1ccc(F)cc1)N1CCOCC1,63 to 66
23,CO/N=C/c1ccc2c(c1Cn1ccnc1)OCO2,102
24,Cc1cc(NC(=O)C(C)(O)COc2cc(F)cc(F)c2)ccc1[N+](=O)[O-] (stereo not given),104 to 106
25,O=C(O)c1cccc2cc3ccc(Cl)cc3c(C(=O)O)c12,325 to 327
